Measured values: patent publication US20260007133A1, “HERBICIDAL COMPOSITION COMPRISING AZINE COMPOUNDS” (BASF SE, priority 2022, published 2026)

Tests used:
Format in all cases: in vivo
[1] = tested on: Commelina benghalensis; test: Greenhouse pre-emergence (PRE) herbicidal test on COMBE; details: PRE, COMBE, Pyroxsulam solo 0.25 gai/ha, 20 DAT
Description: (§1) The culture containers used were plastic pots containing loamy sand with approximately 3.0% of humus as substrate. The seeds of the test plants were sown separately for each species.
(§2) The containers were irrigated gently to promote germination and growth and subsequently covered with transparent plastic hoods until the plants had rooted.
(§3) Depending on the species, the plants were kept at 10-25° C. and 20-35° C., respectively.
(§4) The test period extended over 2 to 4 weeks. During this time, the plants were tended and their response to the individual treatments was evaluated.
(§5) Evaluation was carried out using a scale from 0 to 100. 100 means no emergence of the plants, or complete destruction of at least the above-ground parts, and 0 means no damage or normal course of growth. A good herbicidal activity is given at values of at least 70, and very good herbicidal activity is given at values of at least 85.
(§6) As indicated application was either post emergent (POST) at the respective growth stage (GS) of the weed (BBCH code), or pre-emergent (PRE). […]

[2] = tested on: Ambrosia artemisiifolia; test: Greenhouse pre-emergence (PRE) herbicidal test on AMBEL; details: PRE, AMBEL, 20 DAT
Description: as §1, §2, §3, §4, §5, §6

[3] = tested on: Setaria viridis; test: Greenhouse pre-emergence (PRE) herbicidal test on SETVI
Text: as §1
For the pre-emergence treatment, the active compounds, suspended or emulsified in water, were applied directly after sowing by means of finely distributing nozzles. The containers were irrigated gently to promote germination and growth and subsequently covered with transparent plastic hoods until the plants had rooted. This cover caused uniform germination of the test plants unless this was adversely affected by the active compounds.
as §3, §4, §5
(§7) If not stated differently, the respective components A and B, and if appropriate, C were formulated as a 5% by weight strength emulsion concentrate and, with addition of the amount of solvent system, introduced into the spray liquor used for applying the active compound.
as §6

[4] = tested on: Abutilon theophrasti; test: Greenhouse pre-emergence (PRE) herbicidal test on ABUTH
Description: as §1, §2, §3, §4, §5, §6

[5] = tested on: Euphorbia heterophylla; test: Greenhouse pre-emergence (PRE) herbicidal test on EPHHL; details: Euphorbia heterophylla, pre-emergence
Description: as §1, §2, §3, §4, §5, §6

[6] = tested on: Lolium multiflorum; test: Greenhouse pre-emergence (PRE) herbicidal test on LOLMU; details: Lolium multiflorum, pre-emergence
Description: as §1, §2, §3, §4, §5, §6

[7] = tested on: Geranium pusillum; test: Greenhouse post-emergence (POST) herbicidal test on GERPU; details: Geranium pusillum, post-emergence, 480 h, POST, GERPU, use rate 2 gai/ha, 20 DAT; read-out: solo application % activity
Description: as §1
(§8) For the post-emergence treatment, the test plants were grown to a plant height of from 3 to 15 cm, depending on the plant habit, and only then treated with the active compounds which had been suspended or emulsified in water. To this end, the test plants were either sown directly, and grown in the same containers, or they were first grown separately as seedlings and transplanted into the test containers a few days prior to treatment.
as §3, §4, §5, §7, §6

[8] = tested on: Echinochloa crus-galli; test: Greenhouse post-emergence (POST) herbicidal test on ECHCG; details: Echinochloa crus-galli, post-emergence, 480 h, POST, ECHCG, 20 DAT, read-out: solo application % activity
Description: as §1, §8, §3, §4, §5, §7, §6

[9] = tested on: Abutilon theophrasti; test: Greenhouse post-emergence (POST) herbicidal test on ABUTH; details: for % activity: ABUTH POST
Description: as §1, §8, §3, §4, §5, §7, §6

[10] = tested on: Euphorbia heterophylla; test: Greenhouse post-emergence (POST) herbicidal test on EPHHL; details: Euphorbia heterophylla, post-emergence, 480 h, POST, EPHHL, use rate 1 gai/ha, 20 DAT; read-out: solo application % activity
Description: as §1, §8, §3, §4, §5, §7, §6

[11] = tested on: Digitaria sanguinalis; test: Greenhouse post-emergence (POST) herbicidal test on DIGSA; details: Digitaria sanguinalis, post-emergence, 480 h, POST, DIGSA, 20 DAT, read-out: solo application % activity
Description: as §1, §8, §3, §4, §5, §7, §6

[12] = tested on: Alopecurus myosuroides; test: Greenhouse pre-emergence (PRE) herbicidal test on ALOMY; details: Alopecurus myosuroides, pre-emergence, 480 h, PRE, ALOMY, 20 DAT, read-out: solo application % activity
Description: as §1, §2, §3, §4, §5, §6

[13] = tested on: Amaranthus retroflexus; test: Greenhouse post-emergence (POST) herbicidal test on AMARE; details: AMARE POST, use rate 200 gai/ha
Description: as §1, §8, §3, §4, §5, §7, §6

[14] = Abutilon theophrasti, pre-emergence, read-out: % activity

## COc1cc(OC)n2nc(NS(=O)(=O)c3c(C(F)(F)F)ccnc3OC)nc2n1 [Pyroxsulam, pyroxsulam]
[1]
  % activity: 10%
[2]; Pyroxsulam solo 0.25 gai/ha
  % activity: 15%
[3]; PRE, SETVI, Pyroxsulam solo 0.25 gai/ha, 20 DAT
  % activity: 10%
[4]; PRE, ABUTH, Pyroxsulam solo 0.25 gai/ha, 20 DAT
  % activity: 0%
[4]; PRE, ABUTH, Pyroxsulam solo 0.5 gai/ha, 20 DAT
  % activity: 5%

## C#CCN1C(=O)COc2cc(F)c(N3C(=O)C4=C(CCCC4)C3=O)cc21 [Flumioxazin, flumioxazin]
[2]; Ambrosia artemisiifolia, pre-emergence, 480 h, use rate 0.5 gai/ha, read-out: solo application % activity
  inhibition at 0.5 g/ha: 0%
[2]; Ambrosia artemisiifolia, pre-emergence, 480 h, use rate 2 gai/ha, read-out: solo application % activity
  inhibition at 2 g/ha: 0%
[5]; 480 h, PRE, EPHHL, use rate 0.25 gai/ha, 20 DAT, read-out: solo application % activity
  inhibition at […]: 0%
[5]; 480 h, PRE, EPHHL, use rate 0.5 gai/ha, 20 DAT, read-out: solo application % activity
  inhibition at 0.5 g/ha: 5%
[5]; 480 h, PRE, EPHHL, use rate 1 gai/ha, 20 DAT, read-out: solo application % activity
  inhibition at 1 g/ha: 5%
[5]; 480 h, PRE, EPHHL, use rate 2 gai/ha, 20 DAT, read-out: solo application % activity
  inhibition at 2 g/ha: 10%
[6]; 480 h, PRE, LOLMU, use rate 0.5 gai/ha, 20 DAT, read-out: solo application % activity
  inhibition at 0.5 g/ha: 0%
[7]
  inhibition at 2 g/ha: 45%
[3]; Setaria viridis, pre-emergence, 480 h, PRE, SETVI, use rate 0.5 gai/ha, 20 DAT, read-out: solo application % activity
  inhibition at 0.5 g/ha: 0%
[3]; Setaria viridis, pre-emergence, 480 h, PRE, SETVI, use rate 1 gai/ha, 20 DAT, read-out: solo application % activity
  inhibition at 1 g/ha: 0%
[3]; Setaria viridis, pre-emergence, 480 h, PRE, SETVI, use rate 2 gai/ha, 20 DAT, read-out: solo application % activity
  inhibition at 2 g/ha: 0%
[4]; Abutilon theophrasti, pre-emergence, 480 h, PRE, ABUTH, use rate 0.25 gai/ha, 20 DAT, read-out: solo application % activity
  inhibition at […]: 0%
[4]; Abutilon theophrasti, pre-emergence, 480 h, PRE, ABUTH, use rate 0.5 gai/ha, 20 DAT, read-out: solo application % activity
  inhibition at 0.5 g/ha: 0%
[4]; Abutilon theophrasti, pre-emergence, 480 h, PRE, ABUTH, use rate 1 gai/ha, 20 DAT, read-out: solo application % activity
  inhibition at 1 g/ha: 0%
[8]; use rate 0.5 gai/ha
  inhibition at 0.5 g/ha: 0%
[8]; use rate 1 gai/ha
  inhibition at 1 g/ha: 5%
[8]; use rate 2 gai/ha
  inhibition at 2 g/ha: 30%
[9]; Abutilon theophrasti, post-emergence, 480 h, POST, ABUTH, use rate 2 gai/ha, 20 DAT, read-out: solo application % activity
  inhibition at 2 g/ha: 70%
[10]
  inhibition at 1 g/ha: 60%
[11]; use rate 1 gai/ha
  inhibition at 1 g/ha: 10%
[11]; use rate 2 gai/ha
  inhibition at 2 g/ha: 25%
[12]; use rate 0.25 gai/ha
  inhibition at […]: 0%
[12]; use rate 0.5 gai/ha
  inhibition at 0.5 g/ha: 0%

## COC[C@H](C)N(C(=O)CCl)c1c(C)csc1C [Dimethenamid-P, dimethenamid-P]
[13]
  % activity: 0%
[9]; use rate 50 gai/ha
  % activity: 0%
[9]; use rate 200 gai/ha
  % activity: 25%

## C/C(=N\NC(=O)Nc1cc(F)cc(F)c1)c1ncccc1C(=O)O [Diflufenzopyr, diflufenzopyr]
[5]; read-out: % activity
  inhibition at 3.8 g/ha: 0%
[6]; read-out: % activity
  inhibition at 3.8 g/ha: 0%
[3]; Setaria viridis, pre-emergence, read-out: % activity
  inhibition at 15 g/ha: 50%
[4]; [14]
  inhibition at 3.8 g/ha: 0%
  inhibition at 15 g/ha: 0%
